Here are results for eleven compounds from patent publication US10828299B2 (Gilead Sciences, Inc., priority 2013, dated 2020).

The subject of the series is human hepatocytes. The series is described as follows: Human Hepatocyte Stability Assay. The series is classed as in vitro ADME. The conditions noted are these: comparison table with known compounds; head prints (units). The protocol: The human […] stability of the compounds as predicted hepatocyte clearance in L/hr/kg was assessed. Compounds to be tested were diluted to 200 μM (4 μl of 10 mM DMSO stock into 196 μl ACN:H2O (50:50). Propranolol was used as a positive control, and buffer only without hepatocytes as 0% control. These were further diluted 4 μl with 891 μl KHB buffer (InVitroGRO catalog number Z99074) to provide 2× dosing solution. To each well of 24 well plate, 250 μl of the 2× dosing solution was added to each well with 250 μl of hepatocytes cells (1×10^6 viable cells/ml per well) or KHB for control samples to achieve a final compound concentration of 1 μM during incubation. The final solvent concentration was 0.01% DMSO and 0.25% ACN. The culture plate was placed on a rocker and incubated at 37° C., 5% CO2. Samples were collected at time 0, 1, 3, and 6 hours. The loss of parent compound was determined using LC-MS methods against a standard curve.
Consider `Cc1c(-c2cncc(N)n2)nc(Nc2ccc(N3CCN(C4COC4)CC3)cc2)c2nccn12` [Ex.-4, 6-(6-aminopyrazin-2-yl)-5-methyl-N-(4-(4-(oxetan-3-yl)piperazin-1-yl)phenyl)imidazo[1,2-a]pyrazin-8-amine], for which the “Hheps CL” value stood at 1.3 mL/min/kg.

In the case of `Nc1cncc(-c2cn3ccnc3c(Nc3ccc(N4CCO[C@@H](CO)C4)cc3)n2)n1` [Ex.-3, (R)-(4-(4-((6-(6-aminopyrazin-2-yl)imidazo[1,2-a]pyrazin-8-yl)amino)phenyl)morpholin-2-yl)methanol], the “Hheps CL” value turned out to be 1.5 mL/min/kg.

Consider `Nc1cncc(-c2cn3ccnc3c(Nc3ccc(N4CCN(C5COC5)CC4)c(OCCO)c3)n2)n1` [Ex.-5, 2-(5-((6-(6-aminopyrazin-2-yl)imidazo[1,2-a]pyrazin-8-yl)amino)-2-(4-(oxetan-3-yl)piperazin-1-yl)phenoxy)ethanol], for which the “Hheps CL” value came to 1.2 mL/min/kg.

As to `Cc1ncc(-c2cn3ccnc3c(Nc3ccc(N4CCOCC4)cc3)n2)cc1N` [6-(5-amino-6-methylpyridin-3-yl)-N-(4-morpholinophenyl)imidazo[1,2-a]pyrazin-8-amine, reference compound], the “Hheps CL” value is 13.3 mL/min/kg.

Turning to `Nc1cncc(-c2cn3ccnc3c(Nc3ccc(N4CCOCC4)cc3)n2)c1` [6-(5-aminopyridin-3-yl)-N-(4-morpholinophenyl)imidazo[1,2-a]pyrazin-8-amine, reference compound], the “Hheps CL” value is 11.3 mL/min/kg.

Take `Cc1ncc(-c2cn3ccnc3c(Nc3ccc(N4CCN(C5COC5)CC4)cc3)n2)nc1N` [Ex.-1, 6-(6-amino-5-methylpyrazin-2-yl)-N-(4-(4-(oxetan-3-yl)piperazin-1-yl)phenyl)imidazo[1,2-a]pyrazin-8-amine]: the “Hheps CL” value came to 2 mL/min/kg.

As to `Nc1cncc(-c2cn3ccnc3c(Nc3ccc(N4CCN(C5COC5)CC4)cc3)n2)n1` [Ex.-2, 6-(6-aminopyrazin-2-yl)-N-(4-(4-(oxetan-3-yl)piperazin-1-yl)phenyl)imidazo[1,2-a]pyrazin-8-amine], the “Hheps CL” value was 0.917 mL/min/kg.

In the case of `COc1ccc(Nc2nc(-c3cccc(N)c3)cn3ccnc23)cc1OC` [6-(3-aminophenyl)-N-(3,4-dimethoxyphenyl)imidazo[1,2-a]pyrazin-8-amine, reference compound], the “Hheps CL” value turned out to be 4 mL/min/kg.

Turning to `COc1ccc(Nc2nc(-c3ccc(N)nc3)cn3ccnc23)cc1OC` [6-(6-aminopyridin-3-yl)-N-(3,4-dimethoxyphenyl)imidazo[1,2-a]pyrazin-8-amine, reference compound], the “Hheps CL” value stood at 15 mL/min/kg.

Consider `Cc1ncc(-c2cn3ccnc3c(Nc3ccc(N4CCN(C5COC5)CC4)c(OCCO)c3)n2)nc1N` [Ex.-7, 2-(5-((6-(6-amino-5-methylpyrazin-2-yl)imidazo[1,2-a]pyrazin-8-yl)amino)-2-(4-(oxetan-3-yl)piperazin-1-yl)phenoxy)ethanol], for which the “Hheps CL” value turned out to be 0.83 mL/min/kg.

For the compound `Nc1cncc(-c2cn3ccnc3c(Nc3ccc(N4CCN(CC(CO)CO)CC4)cc3)n2)n1` [Ex.-6, 2-((4-(4-((6-(6-aminopyrazin-2-yl)imidazo[1,2-a]pyrazin-8-yl)amino)phenyl)piperazin-1-yl)methyl)propane-1,3-diol], the “Hheps CL” value stood at 1.3 mL/min/kg.
